“Also recorded” adds a separate entry of the source.

Assay type in all cases: cell-based, human
The test system of one experiment is Wildtype CLL cells. As to the kind of experiment: Compound toxicity assay for CLL patient cells (wildtype). Conditions: FIG. 1A; for sensitivity of wildtype CLL cells to the compound: single agent, feeder layer of CD40 ligand-expressing NIH 3T3 cells.
For a further experiment, the system named is del(11q) CLL cells. As to the kind of experiment: Compound toxicity assay for CLL patient cells (del(11q)). Particulars: single agent; feeder layer of CD40 ligand-expressing NIH 3T3 cells; FIG. 1B.
The next experiment concerns phospho-S6. As to the kind of experiment: Western blot of mTOR pathway, unstimulated CLL cells. Conditions: 1 μM, 2 hours. As for the experimental part: (§1) Protein lysates were probed for phospho-S6 and actin for loading control. Blots from three representative CLL samples are shown, of a total of five analyzed. […] Blots were probed for p-Akt(Thr308), p-Akt (Ser473), p-S6, p-4EBP1 and actin for loading control. Blots from two representative CLL samples shown, of a total of four analyzed.
(§2) Western blot analysis was performed using standard techniques [Hallaert et al. Blood 2008(112):5141-5149]. Samples (50 μg protein) were separated by 13% SDS-PAGE gel electrophoresis. Membranes were probed with anti-p-S6, p-4EBP1, p-Akt (Thr308), p-Akt (Ser473) (Cell Signaling), Bim (Stressgen Bioreagents Canada) and antiserum to β-actin (Santa Cruz Biotechnology) as loading control. Blots were subsequently incubated with IRDye 680 or 800 labelled secondary antibodies for 1 hour. Odyssey Imager (Li-Cor Biosciences) was used as a detection method according to the manufacturer's protocol. For the p-DNA-PK western blot, cells were lysed in RIPA sample buffer and sonificated. Samples (50 μg protein) were separated by mini protean TGX gels (Biorad). Transfer onto Immobilon-FL transfer membrane (Millipore) in 1× transfer buffer, 20% MeOH at 30 volts at 4° C. overnight. The following antibodies were used: p-DNA-PK (Ser2056) (Abcam), KAP (TIF1β), phosphorylated-KAP (phospho-TIF1β-ser824; Cell Signalling) and β-actin (Santa Cruz).
A general note: Immunoblotting shows a protein as a band on a membrane.

The subject of experiment [1] is CLL cells. As to the kind of experiment: Blast cell formation of CD40L-cocultured CLL cells (FACS). Conditions: CD40L coculture; 1 μM, 3 days. As for the experimental part:
FIG. 6A and FIG. 6B) Blast cell formation was assessed by FACS analysis and results are shown as mean±SEM. *0.01≤P<0.05; **0.001≤P<0.01; ***P<0.001 (paired one sample T test) FIG. 6C) CLL cells were examined for surface expression of CD95 (Fas), CD44, CD54 (ICAM) and CD58 (LFA-3) by flow cytometry. Results are shown as mean±SEM (n=6).

The test system of experiment [2] is mRNA of pro-/anti-apoptotic mediators in CLL cells. As to the kind of experiment: RT-MLPA of pro- and anti-apoptotic regulators. Conditions: 1 μM, 24 hours.
Experimental: Reverse Transcription-Multiplex Ligation-Dependent Probe Amplification Assay.
CLL Cells were harvested per stimulation, washed with PBS, resuspended in RNA lysis buffer (Qiagen, Venlo, the Netherlands) and stored at −80° C. RNA was isolated using the GenElute Mammalian Total RNA Miniprep kit (Sigma-aldrich). The concentration and purity of the RNA were determined with a NanoDrop spectrophotometer ND-1000 (NanoDrop Technologies, Willington, USA). Reverse transcription-multiplex ligation-dependent probe amplification assay (RT-MLPA) procedure was performed as described previously by Eldering et al. Nucleic Acids Res. 2003; 31:e153. In brief, 40-60 ng of total RNA of samples were first reverse transcribed using a gene-specific probe mix (R016-X2). The resulting cDNA was annealed overnight at 60° C. to the MLPA probes. The annealed oligonucleotides were covalently linked by Ligase-65 (MRC, Amsterdam, the Netherlands) at 54° C. […] Results were analyzed using the programs Genescan analysis and Genotypes (Applied Biosystems). Data was further analyzed with Microsoft Excel Spreadsheet software. Normalization was performed by setting the sum of all data per sample at 100% and individual peaks were calculated relative to the 100% value.
The next experiment relates to primary CLL cells. As to the kind of experiment: BCR-mediated adhesion of primary CLL cells to fibronectin. Particulars: 1 μM pretreatment; IgVH unmutated samples; n=5. The protocol:
Graphs are presented as normalized mean±SEM (100%=stimulated cells without inhibitors). *0.01≤P<0.05; **0.001≤P<0.01 (paired one sample T test) (n=5). BCR-mediated adhesion of primary CLL cells (FIG. 4) was tested.

Experiment [3] concerns CLL cells. In words: CFSE proliferation assay of CLL cells on 3T40L cells with IL-21. Conditions: CD40L + IL-21 (25 ng/ml); 1 μM, 4 days. The protocol: After 4 days, CFSE was measured by FACS. […] FIG. 8B) Division index was calculated with FlowJo program. […] PBMC (1.0×10^7/mL) were labelled with 0.5 μM carboxyfluorescein diacetate succinimidyl ester (CFSE, Molecular Probes) as described before [Pascutti et al Blood 2013 2013; 122(17):3010-9]. […] After 4 days, proliferation was assessed in a FACS Canto (BD Biosciences) and analyzed with FlowJosoftware (TreeStar, Ashland, Oreg.).

Experiment [4] relates to CD95, CD54, CD58, CD44 on CLL cells. As to the kind of experiment: Expression of cell surface markers (flow cytometry). Conditions: CD40L coculture; 1 μM, 3 days. A general note: A flow cytometer gives signals particle by particle.
Experimental: Expression of Cell Surface Markers.
Cells were washed and resuspended in staining media (phosphate-buffered saline (PBS) containing 0.5% (wt/vol) bovine serum albumin (BSA)). For analysis of expression of cell surface markers, different combinations of antibodies were used. CD54-PE and CD95-FITC purchased from Pharmingen. CD44-Alexa Fluor 700 was obtained from eBiosciences and CD58 from Immunotech. After incubation for 30 minutes at 4° C. protected from light, cells were washed twice in PBS/0.5% BSA and expression of cell surface markers was analyzed using FACSCalibur flow cytometry.
The next experiment has as its system BIM and BID mRNA. In words: RT-MLPA in CD40L triggered CLL cells. Conditions: 1 μM, 3 days. As for the experimental part: (§3) FIG. 7A) Apoptosis was assessed by DiOC6/PI staining and results are shown as mean±SEM (n=7). *0.01≤P<0.05; **0.001≤P<<0.01; ***P<0.001 (paired T test). FIG. 7B) After 3 days, fludarabine sensitivity assay was performed. Apoptosis was assessed by DiOC6/PI staining and specific apoptosis are shown as mean±SEM (n=7). *0.01≤P<0.05; **0.001≤P<0.01 (paired T test) FIG. 7C) mRNA levels of pro-/anti-apoptotic mediators in CLL cells were measured by RT-MLPA (n=6). FIG. 7D) Protein lysates were probed for Bim and actin for loading control. Blots from two representative CLL samples shown, of a total of four analyzed.

Another experiment concerns P53 mutated CLL cells. In words: CLL patient cells apoptosis assay (DioC6/PI). Particulars: 48 hours, FIGS. 2C. An excerpt: (§4) CLL Patient Cells Apoptosis Assay. Patient material ([…] blood) was obtained from CLL patients (diagnosed according to the NCI-WG guidelines) after routine follow-up or diagnostic procedures at the department of hematology of the Academic Medical Center Amsterdam. Peripheral blood mononuclear cells (PBMCs) were isolated by Ficoll density gradient centrifugation and stored in liquid nitrogen, as cell suspension in heat-inactivated fetal calf serum containing 10% DMSO. During all in vitro experiments, cells were maintained in culture medium: Iscove's modified Dulbecco medium supplemented with 10% heat-inactivated FCS, 100 U/mL penicillin, […] gentamycin and 0.00036% β-mercaptoethanol. All samples contained at least 90% CD5+/CD19+ cells as assessed via flow cytometry. B-CLL cells were thawed and diluted to a concentration of 1.10^6 cells/mL in IMDM plus supplements as described above. […] Apoptosis was analyzed by evaluation of mitochondrial membrane potential with DioC6 (Molecular probes). Cells were incubated with 10 nM DioC6 for 30 minutes at 37° C. and 20 μg/mL propidium iodide was added to measure cell death. Expression of DioC6 was determined using the FACSCalibur flow cytometer and CellQuest software was used for data acquisition. Data were analyzed with FlowJo software (TreeStar, San Carlos, Calif., USA).

The test system of another experiment is IGVH unmutated CLL cells. As to the kind of experiment: CLL patient cells apoptosis assay (DioC6/PI). Conditions: 48 hours; FIGS. 2B, F.
Text: as §4

Another experiment deals with IGVH mutated CLL cells. As to the kind of experiment: CLL patient cells apoptosis assay (DioC6/PI). Conditions: 48 hours; FIGS. 2A, E.
Text: as §4

The test system of experiment [5] is CLL cells. In words: Detection of apoptosis with QvD or NAC co-treatment (DiOC6/PI). Conditions: 5 mM NAC, 48 hours.
Experimental: Apoptosis levels were measured by Flow using DiOC6/PI staining and specific apoptosis was calculated. Results are shown as mean±SEM.
Where indicated, CLL cells were co-cultured in the presence/absence of 20 μM of the pancaspase inhibitor QvD or 5 mM N-acetyl-L-cysteine (NAC). CLL cell viability was measured by analysis of mitochondrial transmembrane potential by 3,3-dihexyloxocarbocyanine iodine (DiOC6; Invitrogen/Molecular Probes) and cell membrane permeability to propidium iodide (PI; Sigma Aldrich) using the FACS Calibur flow cytometer. Specific apoptosis is defined as [% cell death in drug treated cells]−[% cell death in medium control]/[% viable cells medium control]×100 using the Graphpad Prism software (Graphpad Prism 5.0, La Jolla, USA).
For experiment [6], the system named is p-S6, p-4EBP1, p-Akt (Ser473). In words: Western blot of mTOR pathway, CD40L-activated CLL cells. Particulars: 100, 500 or 1000 nM, 72 hours. The protocol:
as §1, §2

Another experiment has as its system ATM mutated CLL cells. In words: CLL patient cells apoptosis assay (DioC6/PI). Particulars: 48 hours; FIGS. 2D, G.
The test system of a further experiment is Bim. In words: Bim protein Western blot in CD40L-cocultured CLL cells. Particulars: CD40L coculture; 1 μM, 3 days. The protocol:
as §3
as §2, with “Transfer onto Immobilon-FL transfer membrane (Millipore) in 1× transfer buffer, 20% MeOH at 30 volts at 4° C. overnight. The following antibodies were used: p-DNA-PK (Ser2056) (Abcam), KAP (TIF1β), phosphorylated-KAP (phospho-TIF1β-ser824; Cell Signalling) and β-actin (Santa Cruz).” left out

In experiment [7] the test system is CLL cells. As to the kind of experiment: CD40L coculture survival and fludarabine sensitivity assay (DiOC6/PI). The protocol:
as §3
CD40 stimulation inhibits spontaneous cell death as previously reported [Burger et al. Blood 2009(114):2560-2561]. Lymphocytes of CLL patients were stimulated by coculture with NIH3T3 fibroblasts stably transfected with human CD40L or negative control plasmid (3T3) as described before [Pascutti et al Blood 2013 2013; 122(17):3010-9]. […] After 72 hours of culture, CLL cells were detached and either used for flowcytrometic analyses or subsequently incubated with or without Fludarabine (Sigma) for an additional 48 hours. CLL cell viability was measured as by DiOC6/PI staining as described above. […] CD40L stimulation induces resistance to cytotoxic agents, including fludarabine [Kater et al. Brit J Haematology 2004; 127:404-415].

Text for ATM mutated CLL cells: Patient material (pheripheral blood) was obtained from CLL patients (diagnosed according to the NCI-WG guidelines) after routine follow-up or diagnostic procedures at the department of hematology of the Academic Medical Center Amsterdam. Peripheral blood mononuclear cells (PBMCs) were isolated by Ficoll density gradient centrifugation and stored in liquid nitrogen, as cell suspension in heat-inactivated fetal calf serum containing 10% DMSO. During all in vitro experiments, cells were maintained in culture medium: Iscove's modified Dulbecco medium supplemented with 10% heat-inactivated FCS, 100 U/mL penicillin, 100 m/mL gentamycin and 0.00036% β-mercaptoethanol. All samples contained at least 90% CD5+/CD19+ cells as assessed via flow cytometry. […] Apoptosis was analyzed by evaluation of mitochondrial membrane potential with DioC6 (Molecular probes). Cells were incubated with 10 nM DioC6 for 30 minutes at 37° C. and 20 μg/mL propidium iodide was added to measure cell death. Expression of DioC6 was determined using the FACSCalibur flow cytometer and CellQuest software was used for data acquisition.

`COc1cc([C@@H]2c3cc4c(cc3[C@@H](O[C@@H]3O[C@@H]5CO[C@@H](C)O[C@H]5[C@H](O)[C@H]3O)[C@H]3COC(=O)[C@H]23)OCO4)cc(OC)c1O` [etoposide, reference compound]: in the experiment on Wildtype CLL cells, the “sensitivity of wildtype CLL cells to the compound” value is “highly sensitive”. In addition, in the experiment on del(11q) CLL cells, the “sensitivity of del(11q) CLL cells to the compound” value is “largely resistant”.

Consider `CCN1C(=O)CNc2ncc(-c3ccc(-c4nc[nH]n4)nc3C)nc21` [Compound 1, 1-ethyl-7-(2-methyl-6-(1H-1,2,4-triazol-3-yl)pyridin-3-yl)-3,4-dihydropyrazino[2,3-b]pyrazin-2(1H)-one], for which the “phosphorylation of S6” value in the experiment with phospho-S6 is “completely blocked”. For the same compound, the “blast-like appearance / blast cell formation” value in the experiment on CLL cells [1] is given as “completely blocked”. Further, in the experiment on Wildtype CLL cells (combination with etoposide, ATM-proficient CLL cells), the “enhancement of response by addition of Compound 1 to the etoposide regimen” value is listed as “did not significantly enhance”. The “sensitivity of wildtype CLL cells to the compound” value in the experiment with Wildtype CLL cells was “resistant”. Also, the “levels of pro- and anti-apoptotic regulators on RNA level, including p53-target genes” value in experiment [2] is listed as “not altered”. Also, the “anti-IgM-stimulated integrin-mediated adhesion to fibronectin” value with primary CLL cells is “strongly inhibited”. In addition, the “sensitivity of del(11q) CLL cells to the compound” value in the experiment on del(11q) CLL cells is “exclusively sensitive”. In the experiment with CLL cells [3], the “proliferation of CLL cells” value is “completely blocks; also recorded: fully blocked”. Also, the “3T40L-induced upregulation of immune accessory molecules (CD95, CD54, CD58, CD44)” value in [4] is “significant inhibition”. For the same compound, in the experiment with BIM and BID mRNA, the “CD40-mediated inhibition of BIM (RNA)” value is given as “blocked” and the “upregulation of BID (RNA)” value was “decreased”. Besides, the induction of apoptosis entry in the experiment on P53 mutated CLL cells is listed as “induced apoptosis”. The induction of apoptosis result in the experiment with IGVH unmutated CLL cells is on record as “induced apoptosis”. In addition, the induction of apoptosis result in the experiment with IGVH mutated CLL cells is recorded as “induced apoptosis”. In addition, the “ROS dependence of cell death: effect of NAC co-treatment on cell death” value in the experiment on CLL cells [5] is “did not result in inhibition”. In addition, in experiment [6], the p-4EBP1 upregulation result is on record as “completely blocked”, the “p-Akt (Ser473) upregulation” value is listed as “completely blocked” and the p-S6 upregulation result is on record as “completely blocked”. For the same compound, the induction of apoptosis entry in the experiment with ATM mutated CLL cells is given as “induced apoptosis”. Also, the “CD40-mediated decreased expression of Bim protein” value with Bim is “blocked”. Also, the fludarabine sensitivity entry in the experiment on CLL cells [7] (72 hours CD40L coculture, then fludarabine 48 hours) is “partly reversed”. In addition, the CD40L-induced survival result in the experiment on CLL cells [7] (CD40L coculture, 1 μM, 3 days) is recorded as “inhibited”. In the experiment with CLL cells [7] (co-treatment with Compound 1 during CD40L coculture, then fludarabine 48 hours), the CD40-induced fludarabine resistance entry is listed as “completely abolished”.

Source of the values: patent publication US9980963B2, “Treatment of cancer with dihydropyrazino-pyrazines” (Signal Pharmaceuticals, LLC, priority 2013, dated 2018).
